Data as given in patent US11464783B2, “Heterocyclic compounds” (Aligos Therapeutics, Inc., priority 2019, dated 2022).

Each molecule was assayed on HBV (assay: HBV-DNA Antiviral Assay Using HepG2.117 Cells). Conditions: Hepatitis B virus, HepG2.117, 96 h, intracellular HBV DNA by qPCR, day 4.
Type: cell-based
Experimental: The following assay procedure describes the HBV antiviral assay, using HepG2.117 cells, which carry a stably integrated genotype D HBV genome under the control of a Tet-off promoter, and intracellular HBV DNA quantification as endpoint. Cell viability is assessed in parallel by measuring the intracellular ATP content using ATPlite (Perkin Elmer).
On day 0, HepG2.117 cells (which are maintained in routine cell culture with doxycycline present in the medium at a final concentration of 1 μg/mL) were seeded in 96-well plates (white with clear bottom) at a density of 2.0×10^4 cells/well (0.1 mL/well) in medium without doxycycline to induce pgRNA transcription and subsequent formation of HBV particles. The cells were incubated at 37° C. and 5% CO2.
On day 1, medium was removed from each well, the test articles were diluted in culture medium without doxcycyline and 100 μL was added to cell culture wells (9 concentrations, 4-fold dilution). For each plate, 6 untreated (merely DMSO) wells were included. The final concentration of DMSO in the culture medium was 2%. Each plate was prepared in duplicate (one for HBV DNA extraction, one for ATPlite measurement). The cells were incubated at 37° C. and 5% CO2 for 3 days.
On day 4, cell viability was assessed using ATPlite and cell lysates were prepared for HBV DNA extraction and subsequent quantification by qPCR.
Medium was removed from each well and 100 μL of 0.33% NP-40 in H2O was added to each well. Plates were sealed, incubated at 4° C. for 5 mins, vortexed extensively and centrifuged briefly. Next, 35 μL of lysate was added to 65 μL QuickExtract DNA Extraction Solution (Epicentre) in a PCR plate for each well. PCR plate was incubated at 65° C. for 6 mins, 98° C. for 2 mins and finally cooled to 4° C. HBV DNA was then quantified by qPCR with HBV-specific primers and probes as specified in Table 2 using the Bio-Rad SSOAdvanced Universal Probes Supermix on a CFX96 machine (Bio-Rad). The PCR cycle program consisted of 95° C. for 3 mins, followed by 40 cycles at 95° C. for 10 sec and 60° C. for 30 sec.
A DNA standard was prepared by dilution of an IDT gBlock corresponding to the amplicon with concentrations ranging from 10^2 to 10^8 copies/input (i.e. per 4 μL) and used to generate a standard curve by plotting Cq values vs. HBV DNA standard concentration. The quantity of HBV DNA in each sample was determined by interpolating from the standard curve.
Cell viability was calculated as follows: % Cell viability=(luminescence value of test sample)/(average luminescence value of 2% DMSO control)×100%. HBV DNA inhibition was calculated as follows: 100−(HBV DNA copy number of test sample)/(average HBV DNA copy number of 2% DMSO control)×100%. No normalization to entecavir was required due to the excellent dynamic window of this assay. The CC50, EC so and EC90 values were determined by dose-response curves fitted by GraphPad Prism using “log (agonist) vs. response—Variable slope”.

SMILES	EC50
N=S1(=O)CCN(C(=O)Nc2ccc(F)c(Cl)c2)CC1c1cccs1 (stereo not drawn) [Compound 17, N-(3-chloro-4-fluoro-phenyl)-1-imino-1-oxo-2-(2-thienyl)-1,4-thiazinane-4-carboxamide]	500 to 5000 nM
C[C@H]1CS(=O)(=O)[C@H](c2cccs2)CN1C(=O)Nc1ccc(F)c(Cl)c1 [Compound 20, (2S,5S)—N-(3-chloro-4-fluoro-phenyl)-5-methyl-1,1-dioxo-2-(2-thienyl)-1,4-thiazinane-4-carboxamide]	500 to 5000 nM
C[C@H]1CS(=O)(=O)[C@@H](c2cccs2)CN1C(=O)Nc1ccc(F)c(Cl)c1 [Compound 21, (2R,5S)—N-(3-chloro-4-fluoro-phenyl)-5-methyl-1,1-dioxo-2-(2-thienyl)-1,4-thiazinane-4-carboxamide]	100 to 500 nM
C[C@@H]1CS(=O)(=O)[C@H](c2cccs2)CN1C(=O)Nc1ccc(F)c(Cl)c1 [Compound 23, (2S,5R)-N-(3-chloro-4-fluorophenyl)-5-methyl-1,1-dioxo-2-(thiophen-2-yl)-1,4-thiomorpholine-4-carboxamide]	500 to 5000 nM
C[C@@H]1CS(=O)(=O)[C@@H](c2cccs2)CN1C(=O)c1ccc(Br)c(Cl)c1 [Compound 25, (4-bromo-3-chloro-phenyl)-[(2R,5R)-5-methyl-1,1-dioxo-2-(2-thienyl)-1,4-thiazinan-4-yl]methanone]	500 to 5000 nM
C[C@@H]1CS(=O)(=O)[C@H](c2cccs2)CN1C(=O)c1ccc(Br)c(Cl)c1 [Compound 26, (4-bromo-3-chloro-phenyl)-[(2S,5R)-5-methyl-1,1-dioxo-2-(2-thienyl)-1,4-thiazinan-4-yl]methanone]	500 to 5000 nM
O=C(c1ccc(Br)c(Cl)c1)N1CCS(=O)(=O)C(c2nccs2)C1 (stereo not drawn) [Compound 27, (4-bromo-3-chloro-phenyl)-(1,1-dioxo-2-thiazol-2-yl-1,4-thiazinan-4-yl)methanone]	100 to 500 nM
O=C(c1ccc(Br)c(Cl)c1)N1CCS(=O)(=O)C(c2nnco2)C1 (stereo not drawn) [Compound 28, (4-bromo-3-chloro-phenyl)-[2-(1,3,4-oxadiazol-2-yl)-1,1-dioxo-1,4-thiazinan-4-yl]methanone]	500 to 5000 nM
Cc1cnc(C2CN(C(=O)c3ccc(Br)c(Cl)c3)CCS2(=O)=O)s1 (stereo not drawn) [Compound 29, (4-bromo-3-chloro-phenyl)-[2-(5-methylthiazol-2-yl)-1,1-dioxo-1,4-thiazinan-4-yl]methanone]	≤ 100 nM
O=C(c1ccc(Br)c(Cl)c1)N1CCS(=O)(=O)C(c2ncc(Cc3ccccc3)s2)C1 (stereo not drawn) [Compound 30, (2-(5-benzylthiazol-2-yl)-1,1-dioxidothiomorpholino)(4-bromo-3-chlorophenyl)methanone]	100 to 500 nM
O=C(c1ccc(Br)c(Cl)c1)N1CCS(=O)(=O)C(c2nc(Cc3ccccc3)cs2)C1 (stereo not drawn) [Compound 31, (2-(4-benzylthiazol-2-yl)-1,1-dioxidothiomorpholino)(4-bromo-3-chlorophenyl)methanone]	100 to 500 nM
O=C(c1ccc(Cl)c(Cl)c1)N1CCS(=O)(=O)C(c2nccs2)C1 (stereo not drawn) [Compound 32]	500 to 5000 nM
C[C@@]1(C(=O)NCc2ccccc2)CN(C(=O)c2ccc(Br)c(Cl)c2)CCS1(=O)=O [Compound 33a]	100 to 500 nM
C[C@]1(C(=O)NCc2ccccc2)CN(C(=O)c2ccc(Br)c(Cl)c2)CCS1(=O)=O [Compound 33b]	500 to 5000 nM
CC1(c2nccs2)CN(C(=O)c2ccc(Br)c(Cl)c2)CCS1(=O)=O (stereo not drawn) [Compound 34]	500 to 5000 nM
O=C(c1ccc(Br)c(Cl)c1)N1CCS(=O)(=O)[C@](F)(C(=O)NCc2ccccc2)C1 [Compound 35a]	≤ 100 nM
O=C(c1ccc(Br)c(Cl)c1)N1CCS(=O)(=O)[C@@](F)(C(=O)NCc2ccccc2)C1 [Compound 35b]	500 to 5000 nM
O=C(c1ccc(Br)c(Cl)c1)N1CCS(=O)(=O)[C@](F)(c2ncc(Cc3ccccc3)s2)C1 [Compound 37a, (4-bromo-3-chloro-phenyl)-[(2S)-2-(5-benzylthiazol-2-yl)-2-fluoro-1,1-dioxo-1,4-thiazinan-4-yl]methanone]	≤ 100 nM

SMILES	EC50
O=C(c1ccc(Br)c(Cl)c1)N1CCS(=O)(=O)[C@@](F)(c2ncc(Cc3ccccc3)s2)C1 [Compound 37b, (4-bromo-3-chloro-phenyl)-[(2R)-2-(5-benzylthiazol-2-yl)-2-fluoro-1,1-dioxo-1,4-thiazinan-4-yl]methanone]	500 to 5000 nM
O=C(c1ccc(Br)c(Cl)c1)N1CCS(=O)(=O)[C@](F)(C(=O)NCCc2ccccc2)C1 [Compound 38a]	> 5000 nM
O=C(c1ccc(Br)c(Cl)c1)N1CCS(=O)(=O)[C@@](F)(C(=O)NCCc2ccccc2)C1 [Compound 38b]	500 to 5000 nM
O=C(c1ccc(Br)c(Cl)c1)N1CCS(=O)(=O)[C@@](F)(c2ncc(-c3ccccc3)s2)C1 [Compound 39]	500 to 5000 nM
N#Cc1cc(C(=O)N2CCS(=O)(=O)[C@](F)(c3ncc(Cc4ccccc4)s3)C2)ccc1Br [Compound 40a]	500 to 5000 nM
N#Cc1cc(C(=O)N2CCS(=O)(=O)[C@@](F)(c3ncc(Cc4ccccc4)s3)C2)ccc1Br [Compound 40b]	≤ 100 nM
C[C@H](c1ccccc1)c1cnc([C@@]2(F)CN(C(=O)c3ccc(Br)c(Cl)c3)CCS2(=O)=O)s1 [Compound 41a]	≤ 100 nM
C[C@@H](c1ccccc1)c1cnc([C@@]2(F)CN(C(=O)c3ccc(Br)c(Cl)c3)CCS2(=O)=O)s1 [Compound 41b]	≤ 100 nM
C[C@H](c1ccccc1)c1cnc([C@]2(F)CN(C(=O)c3ccc(Br)c(Cl)c3)CCS2(=O)=O)s1 [Compound 41c]	500 to 5000 nM
C[C@@H](c1ccccc1)c1cnc([C@]2(F)CN(C(=O)c3ccc(Br)c(Cl)c3)CCS2(=O)=O)s1 [Compound 41d]	500 to 5000 nM
C[C@@H](c1cnc([C@@]2(F)CN(C(=O)c3ccc(Br)c(C#N)c3)CCS2(=O)=O)s1)c1ccccc1F [Compound 43a]	≤ 100 nM
C[C@H](c1cnc([C@@]2(F)CN(C(=O)c3ccc(Br)c(C#N)c3)CCS2(=O)=O)s1)c1ccccc1F [Compound 43b]	≤ 100 nM
C[C@@H](c1cnc([C@]2(F)CN(C(=O)c3ccc(Br)c(C#N)c3)CCS2(=O)=O)s1)c1ccccc1F [Compound 43c]	500 to 5000 nM
C[C@H](c1cnc([C@]2(F)CN(C(=O)c3ccc(Br)c(C#N)c3)CCS2(=O)=O)s1)c1ccccc1F [Compound 43d]	500 to 5000 nM
N#Cc1cc(C(=O)N2CCS(=O)(=O)[C@@](F)(c3ncc(Cc4ccccc4-c4ncccn4)s3)C2)ccc1Br [Compound 45a]	≤ 100 nM
N#Cc1cc(C(=O)N2CCS(=O)(=O)[C@](F)(c3ncc(Cc4ccccc4-c4ncccn4)s3)C2)ccc1Br [Compound 45b]	500 to 5000 nM
O=C(c1ccc(Br)c(Cl)c1)N1CCS(=O)(=O)[C@@](F)(c2ncc(Cc3ccccc3)o2)C1 [Compound 46a, (R)-(2-(5-benzyloxazol-2-yl)-2-fluoro-1,1-dioxidothiomorpholino)(4-bromo-3-chlorophenyl)methanone]	≤ 100 nM
COc1ccc(Cc2cnc([C@]3(F)CN(C(=O)c4ccc(Br)c(Cl)c4)CCS3(=O)=O)s2)c(OC)c1 [Compound 49a]	500 to 5000 nM
